Assay results from US11584744B2 (UNIVERSITY OF WASHINGTON, priority 2017, dated 2023).
Converted amounts (≈) assume the structure as drawn. Where two headings read alike, the source gives them in different places.

What was measured:
[1] = biological target: recombinant S. aureus MetRS enzyme (Staphylococcus aureus, UniProt A0A0H2XID2); test: Inhibition of SaMetRS, ATP depletion assay; assay type: biochemical; settings: read-out: (B) MetRS (S. aureus) IC50
Summary of the method: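 N-terminal 6-His S. aureus MetRS (25 nM) was pre-incubated 15 min at room temperature with compound, 400 μg/mL E. coli tRNA and pyrophosphatase in HEPES-KOH pH 7.9, 2% DMSO. Reaction started with 150 nM ATP plus 20 μM L-methionine, ran 120 min; remaining ATP read by Kinase-Glo luminescence, IC50 by sigmoidal nonlinear regression.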

[2] = system: S. aureus MRSA (ATCC 33591); test: MIC susceptibility testing; assay type: cell-based, Staphylococcus aureus; settings: MRSA ATCC33591; for MIC: Staphylococcus aureus, read-out: (G) MRSA (ATCC33591) MIC
Summary of the method: (§1)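 CLSI broth microdilution in triplicate, 5×10^5 CFU/mL final, ≤0.5% DMSO; MHB for S. aureus, CA-MHB for E. coli and E. faecium, CA-MHB plus 3% laked horse blood for S. pyogenes (5% CO2).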

[3] = system: E. faecium VRE (ATCC 51559); test: MIC susceptibility testing; assay type: cell-based, Enterococcus faecium; settings: E. faecium ATCC 51559; for MIC: Enterococcus faecium, read-out: (I) E. faecium (ATCC 51559) MIC
Summary of the method: as §1

MetRS (T. brucei) = biological target: T1, MetRS (T. brucei) (Trypanosoma brucei brucei, UniProt Q38C91); test: MetRS (T. brucei) enzyme inhibition; assay type: biochemical
T1 sequence (Q38C91 1-773): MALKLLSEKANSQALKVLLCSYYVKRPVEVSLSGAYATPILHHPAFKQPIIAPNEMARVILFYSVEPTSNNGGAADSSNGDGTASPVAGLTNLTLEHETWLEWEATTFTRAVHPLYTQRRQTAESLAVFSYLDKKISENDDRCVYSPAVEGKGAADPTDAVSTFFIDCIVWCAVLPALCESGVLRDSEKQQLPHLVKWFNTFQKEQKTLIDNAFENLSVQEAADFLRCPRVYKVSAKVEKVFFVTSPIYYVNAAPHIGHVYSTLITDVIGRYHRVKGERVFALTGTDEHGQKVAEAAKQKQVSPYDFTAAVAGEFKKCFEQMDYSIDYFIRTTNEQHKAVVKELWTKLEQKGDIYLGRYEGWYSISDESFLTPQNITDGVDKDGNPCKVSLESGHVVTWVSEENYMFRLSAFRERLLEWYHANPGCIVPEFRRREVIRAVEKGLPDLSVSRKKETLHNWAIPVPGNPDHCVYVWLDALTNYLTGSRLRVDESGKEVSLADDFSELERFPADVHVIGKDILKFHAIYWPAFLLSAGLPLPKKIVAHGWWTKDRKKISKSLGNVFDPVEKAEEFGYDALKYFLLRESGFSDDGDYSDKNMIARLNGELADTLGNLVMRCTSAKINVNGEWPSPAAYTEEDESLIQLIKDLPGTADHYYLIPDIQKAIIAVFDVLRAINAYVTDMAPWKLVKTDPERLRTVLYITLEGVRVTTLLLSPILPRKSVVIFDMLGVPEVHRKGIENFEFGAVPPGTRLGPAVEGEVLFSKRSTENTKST

MetRS (C. parvum) = MetRS (C. parvum) (Cryptosporidium parvum, UniProt Q5CVN0); test: MetRS (C. parvum) enzyme inhibition; assay type: biochemical; settings: read-out: (C) MetRS (C. parvum) IC50
MetRS (C. parvum), sequence (Q5CVN0 entry or part of it): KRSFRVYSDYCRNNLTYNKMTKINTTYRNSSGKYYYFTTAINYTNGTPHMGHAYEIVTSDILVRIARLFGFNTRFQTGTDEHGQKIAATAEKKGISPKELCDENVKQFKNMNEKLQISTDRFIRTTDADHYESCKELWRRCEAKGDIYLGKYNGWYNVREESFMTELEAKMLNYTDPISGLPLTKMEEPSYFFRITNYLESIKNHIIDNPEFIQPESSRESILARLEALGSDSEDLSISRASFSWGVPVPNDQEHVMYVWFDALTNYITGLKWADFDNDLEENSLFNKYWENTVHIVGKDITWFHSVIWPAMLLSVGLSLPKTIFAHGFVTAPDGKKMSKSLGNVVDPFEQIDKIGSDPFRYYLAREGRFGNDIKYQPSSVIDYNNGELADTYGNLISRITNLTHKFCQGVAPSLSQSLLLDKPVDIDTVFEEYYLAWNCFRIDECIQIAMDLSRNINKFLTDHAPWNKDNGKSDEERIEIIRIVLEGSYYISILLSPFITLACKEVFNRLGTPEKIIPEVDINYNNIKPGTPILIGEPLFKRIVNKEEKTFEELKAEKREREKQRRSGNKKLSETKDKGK

T. cruzi = T. cruzi growth inhibition; assay type: cell-based, Trypanosoma cruzi; settings: read-out: (E) T. cruzi EC50
[4] = system: G. lamblia (ATCC GL50803); test: G. lamblia growth inhibition; assay type: cell-based; settings: Giardia duodenalis, read-out: (K) G. lamblia (ATCC GL50803) EC50
[5] = system: S. aureus MSSA (ATCC 29213); test: MIC susceptibility testing; assay type: cell-based, Staphylococcus aureus; settings: S. aureus ATCC 29213; for MIC: Staphylococcus aureus, read-out: (F) S. aureus (ATCC 29213) MIC
C. parvum = C. parvum growth inhibition; assay type: cell-based, Cryptosporidium parvum; settings: read-out: (J) C. parvum EC50
T. brucei = T. brucei growth inhibition; assay type: cell-based, Trypanosoma brucei; settings: read-out: (D) T. brucei EC50
S. aureus (ATCC 29213) [6] = test: MBC determinations (with MIC); assay type: cell-based; settings: Staphylococcus aureus, ATCC29213, S. aureus (ATCC 29213)
Procedure: Maximum DMSO concentrations were 0.5%. […] Each experiment's inoculum was serially diluted and plated on TSA to count competent cells. Cultures were incubated at 37° C. for at least 20 h and plated on TSA for CFU determination.
MIC/MBC: Measurements of minimum bactericidal concentrations (MBCs) were done with the S. aureus strain ATCC 29213 (Table 5).

S. aureus (ATCC 29213) [7] = assay type: cell-based, Staphylococcus aureus; settings: 8× the MIC
Procedure: Resistance frequency rates determination: The spontaneous resistance frequency rates to test compounds was determined according to published methods. Agar selection plates were made by adding compound from DMSO stocks into molten Mueller Hinton agar in a 55° C. water bath. […] The final DMSO concentration was <0.1% per plate. Plates were dried in a sterile hood for 30 minutes prior to overnight storage at 4° C., and pre-warmed in the 37° C. incubator for 1 hour prior to assay.
A fresh overnight culture was diluted 1:50 in MHB and grown at 37° C. with shaking (150 rpm) until reaching an OD600 of 0.4 correlating to ˜2×10^9 CFUs/mL. Approximately 3 mL for a total of 6*10^9 CFUs were distributed onto 4 plates for each compound. Plates were incubated at 37° C. for 72 h prior to counting of colonies. The starting inoculum was also serially diluted and plated to quantify initial bacterial load. The resistance frequency was determined as the number of compound-resistant colonies divided by the total colonies plated.
Resistance frequency rates: The propensity for S. aureus to develop resistance to MetRS inhibitors was also studied (Table 6).

S. aureus = test: Serum shift assays (MIC with and without 50% human serum); assay type: cell-based, Staphylococcus aureus; settings: Staphylococcus aureus
Procedure: Serum shift assays: To assess the role of protein binding on compound susceptibility, MIC determinations were performed in triplicate in the presence and absence of 50% human serum. Serial threefold dilutions of 2× compound were generated in MHB and aliquoted onto 96 well plates with a DMSO limit of 0.5%. Bacteria were adjusted to 1*10^8 CFUs/mL in MHB, then further diluted 1:100 in MHB and 100% heat deactivated filter sterilized pooled human serum. Fifty microliters were added to each well of the corresponding plates, and the plates were incubated at 37° C. for ˜20 h. The lowest concentration causing ≥90% growth inhibition was recorded as the MIC.

MIC [2]	MIC [3]	IC50 (MetRS (C. parvum))	EC50 (T. cruzi; Trypanosoma cruzi)	EC50 (T. cruzi)	EC50 [4]	EC50 (C. parvum; Cryptosporidium parvum)	EC50 (C. parvum)	EC50 (T. brucei; Trypanosoma brucei)	EC50 (T. brucei)	(I) E. faecium (ATCC 51559) MIC [3]	Compound	IC50 [1]	IC50 (MetRS (T. brucei))	MIC [5]	other results
1.4 µg/mL (≈ 3.22 µM)	–	< 40 nM	220 nM	–	3850 nM	610 nM	434 nM	–	–	–	CC(C)n1c(Cc2ccc(Cl)cc2Cl)cn(Cc2nc3ccc(F)nc3[nH]2)c1=O [Compound 2080, 4-[(2,4-dichlorophenyl)methyl]-1-({5-fluoro-1H-imidazo[4,5-b]pyridin-2-yl}methyl)-3-(propan-2-yl)-2,3-dihydro-1H-imidazol-2-one]	–	< 40 nM	0.999 µg/mL (≈ 2.3 µM)	–
0.165 µg/mL (≈ 0.376 µM)	0.0765 µg/mL (≈ 0.174 µM)	< 40 nM	28 nM	39.6 nM	10 nM	211 nM	196 nM	–	–	0.134 µg/mL	COc1ccc(-c2cccc3c2CN(Cc2nc4nc(Cl)ccc4[nH]2)C3=O)c(Cl)c1 [Compound 2230, 2-((5-chloro-1H-imidazo[4,5-b]pyridin-2-yl)methyl)-4-(2-chloro-4-methoxyphenyl)isoindolin-1-one]	–	–	0.393 µg/mL (≈ 0.895 µM)	(F) S. aureus (ATCC 29213) MIC [5]: 0.304 µg/mL
0.186 µg/mL (≈ 0.401 µM)	0.147 µg/mL (≈ 0.317 µM)	< 40 nM	207 nM	–	20 nM	–	–	23.3 nM	27.8 nM	–	COc1ccc(-c2cccc3c2CN(Cc2nc4c(C#N)c(Cl)ccc4[nH]2)C3=O)c(Cl)c1 [Compound 2233, 5-chlor0-2-((4-(2-chloro-4-methoxyphenyl)-1-oxoisoindolin-2-yl)methyl)-1H-benzo[d]imidazole-4-carbonitrile]	–	–	–	–
0.0578 µg/mL (≈ 0.114 µM)	0.0141 µg/mL (≈ 0.0278 µM)	< 40 nM	5.7 nM	6.83 nM	20 nM	–	–	< 0.91 nM	0.68 nM	0.0122 µg/mL	COc1cc(Cl)c(Cc2cn(Cc3nc4nc(Cl)ccc4[nH]3)c(=O)n2CC(C)(C)O)cc1OC [Compound 2240, 1-({5-chloro-1H-imidazo[4,5-b]pyridin-2-yl}methyl)-4-[(2-chloro-4,5-dimethoxyphenyl)methyl]-3-(2-hydroxy-2-methylpropyl)-2,3-dihydro-1H-imidazol-2-one]	–	–	–	–
1.81 µg/mL (≈ 3.55 µM)	0.599 µg/mL (≈ 1.17 µM)	< 40 nM	112 nM	–	50 nM	531 nM	800 nM	8.97 nM	11.8 nM	0.847 µg/mL	COc1ccc(Cc2cn(Cc3nc4c(Cl)c(Cl)ccc4[nH]3)c(=O)n2CC(C)(C)O)c(Cl)c1 [Compound 2242, 4-[(2-chloro-4-methoxyphenyl)methyl]-1-[(6,7-dichloro-1H-1,3-benzodiazol-2-yl)methyl]-3-(2-hydroxy-2-methylpropyl)-2,3-dihydro-1H-imidazol-2-one]	–	–	–	–
–	–	–	–	–	–	–	–	–	–	–	CO[C@@H]1[C@@H](OC(N)=O)[C@@H](O)[C@H](Oc2ccc3c(O)c(NC(=O)c4ccc(O)c(CC=C(C)C)c4)c(=O)oc3c2C)OC1(C)C [NOV, novobiocin]	–	–	–	MIC (S. aureus (ATCC 29213) [6]; MBC experiment (Table 5), read-out: MIC): 0.156 µg/mL (≈ 0.255 µM); MBC (S. aureus (ATCC 29213) [6]; concentration killing 99.9% of inoculum, read-out: MBC): 5 µg/mL (≈ 8.16 µM); Resistance frequency (Expt. 2) (S. aureus (ATCC 29213) [7]; 72 h): 1.58 × 10^−8; Resistance frequency (average or greater #) (S. aureus (ATCC 29213) [7]; two independent experiments): 1.58 × 10^−8; MIC (S. aureus; 50% human serum, read-out: Avg MIC ± SEM (+50% serum)): 12.9 ± 1.97 µg/mL; MIC (S. aureus; no serum, read-out: Avg MIC ± SEM (no serum)): 0.081 ± 0.02 µg/mL

Compound	MIC [2]	MIC [3]	IC50 (MetRS (C. parvum))	EC50 (T. cruzi; Trypanosoma cruzi)	EC50 (T. cruzi)	EC50 [4]	EC50 (C. parvum; Cryptosporidium parvum)	EC50 (C. parvum)	EC50 (T. brucei; Trypanosoma brucei)	EC50 (T. brucei)	(I) E. faecium (ATCC 51559) MIC [3]	IC50 [1]	IC50 (MetRS (T. brucei))	MIC [5]	other results
CCn1c(Cc2ccc(Cl)cc2Cl)cn(Cc2nc3ccc(Cl)nc3[nH]2)c1=O [Compound 2067, 1-({5-chloro-1H-imidazo[4,5-b]pyridin-2-yl}methyl)-4-[(2,4-dichlorophenyl)methyl]-3-ethyl-2,3-dihydro-1H-imidazol-2-one]	1.35 µg/mL (≈ 3.09 µM)	> 2 µg/mL	< 40 nM	16.7 nM	32.3 nM	670 nM	–	–	–	–	–	< 25 nM	< 40 nM	–	(G) MRSA (ATCC33591) MIC [2]: 1.16 µg/mL
COc1ccc(-c2cccc3nc(Cc4nc5nc(Cl)ccc5[nH]4)cn23)c(Cl)c1 [Compound 2119, 2-({5-chloro-1H-imidazo[4,5-b]pyridin-2-yl}methyl)-5-(2-chloro-4-methoxyphenyl)imidazo[1,2-a]pyridine]	1.04 µg/mL (≈ 2.45 µM)	0.727 µg/mL (≈ 1.71 µM)	< 40 nM	196 nM	–	60 nM	480 nM	633 nM	17.9 nM	29.3 nM	–	< 25 nM	< 40 nM	0.285 µg/mL (≈ 0.672 µM)	–
COc1ccc(-c2cccc3nc(Cc4nc5nc(F)ccc5[nH]4)cn23)c(Cl)c1 [Compound 2122, 5-(2-chloro-4-methoxyphenyl)-2-({5-fluoro-1H-imidazo[4,5-b]pyridin-2-yl}methyl)imidazo[1,2-a]pyridine]	0.909 µg/mL (≈ 2.23 µM)	0.263 µg/mL (≈ 0.645 µM)	< 40 nM	703 nM	–	220 nM	976 nM	597 nM	58.5 nM	–	–	< 25 nM	< 40 nM	0.419 µg/mL (≈ 1.03 µM)	–
